Values of other authors in patent publication US6777561B1, “Compounds” (AstraZeneca Canada Inc., priority 1998, dated 2004).

Legend:
[1] = system: δ receptor; conditions: background statement on non-peptidic δ antagonists
[2] = background statement on non-peptidic δ antagonists

Oc1ccc2c3c1O[C@H]1c4[nH]c5ccccc5c4C[C@@]4(O)[C@@H](C2)N(CC2CC2)CC[C@]314 [naltrindole]
selectivity for the δ receptor vs. μ receptor binding [1]: < 10 fold
analgesic activity [2]: no analgesic activity
